Test results reported in patent US20150017673A1, “COMPOSITIONS AND METHODS FOR DRUG-SENSITIZATION OR INHIBITION OF A CANCER CELL” (priority 2012, published 2015).
Like-named read-outs stand apart in the source and are kept apart here. Numbered stars: 1 amine (or outer) side, 2 acyl side, 3 side chain; on linkers, the order of the positions; unused ones are H or OH. Bridge positions count the residues as written; N and C are the ends. Square brackets hold non-standard residues; d marks the D form. Peptide text beside a SMILES is read from it. I, II: the chains in the order shown. Actinocin(9to1) = Cc1c2oc3c(C)ccc(C(=O)[*:1])c3nc-2c(C(=O)[*:2])c(N)c1=O; NMeV = CN[C@H](C(=O)O)C(C)C; Sar = CNCC(=O)O

Key:
[1] = system: dexamethasone-resistant multiple myeloma MM.1R; assay: Cell growth assay on MM.1R cells; assay type: cell-based; details: for Fold increase in potency: with vs without Rifabutin
Procedure: (§1) Compositions were tested on CHOP-resistant G3 NHL cells that had been cultivated in RPMI medium for five days. Prior to assay, the cells were counted by haemocytometer and cell concentration standardized to 625,000 cells/ml. Test drugs were solubilized in 100% DMSO and then diluted to final assay concentration with 0.1M phosphate buffered saline (PBS) and a final DMSO concentration of 0.5%. Cells were added to assay plates containing the test drugs (rifabutin+148 ng/ml, 74 ng/ml, 37 ng/ml, or 0 ng/ml doxorubicin) and allowed to incubate for 96 hours at 37° C. and 5% CO2. The metabolic dye rezasurin was added to the wells of the assay plate at a final concentration of 20 μg/ml and the plates were incubated for an additional 24 hours. The plates were then read in a BMG Polarstar plate reader at wavelength (573-605) and the data plotted as OD versus increasing dilutions (i.e. decreasing total amounts) of rifabutin derivative concentration.
(§2) Additional cell lines used include: ovarian cancer OVCAR-8, T lymphoblastoid leukemia MOLT-4, dexamethasone-resistant multiple myeloma MM.1R, myeloid leukemia cells HL-60, osteosarcoma cells U-2 OS, and myeloma RPMI 8226.

[2] = system: T lymphoblastoid leukemia MOLT-4; assay: Cell growth assay on MOLT-4 cells; assay type: cell-based
Procedure: as §1, §2

[3] = system: multi-drug resistant sarcoma cell line MES-SA-Dx5; assay: Cell growth assay on MES-SA-Dx5 cells; assay type: cell-based; details: for Magnitude of potentiation in combination with doxorubicin: MES-SA-Dx5, uterus sarcoma
Procedure: as §1
(§3) In these experiments, the following cell lines were used: CHOP-resistant NHL cell line G3, CHOP-sensitive NHL cell line CRL2631, the multi-drug resistant sarcoma cell line MES-SA-Dx5; multi-drug-resistant breast cancer cell line MDA-MB-231, multi-drug resistant ovarian carcinoma cell line SK-OV3, multi-drug resistant ovarian cancer cell line NCI/ADR-RES, drug-sensitive ovarian cancer cell line OVCAR-5, and multi-drug resistant ovarian cancer cell line OVCAR-3.
as §2

[4] = system: drug-sensitive ovarian cancer cell line OVCAR-5; assay: Cell growth assay on OVCAR-5 cells; assay type: cell-based; details: for IC50: Homo sapiens
Procedure: as §1, §3, §2

[5] = system: multi-drug resistant ovarian cancer cell line NCI/ADR-RES; assay: Cell growth assay on NCI/ADR-RES cells; assay type: cell-based; details: NCI/ADR-RES, ovarian carcinoma
Procedure: as §1, §3, §2

lymphoma cell line G3 = assay: Cell growth assay (resazurin fluorescence) on CHOP-resistant G3 NHL cells; assay type: cell-based, human; details: for Magnitude of potentiation in combination with doxorubicin: G3, lymphoma B cells
Procedure: as §1

[6] = system: multi-drug resistant ovarian cancer cell line OVCAR-3; assay: Cell growth assay on OVCAR-3 cells; assay type: cell-based; details: for IC50: Homo sapiens
Procedure: as §1
(§4) In these experiments, the following cell lines were used: CHOP-resistant NHL cell line G3, CHOP-sensitive NHL cell line CRL2631, the multi-drug resistant sarcoma cell line MES-SA-Dx5; multi-drug-resistant breast cancer cell line MDA-MB-231, multi-drug resistant ovarian carcinoma cell line SK-OV3, multi-drug resistant ovarian cancer cell line NCI/ADR-RES, drug-sensitive ovarian cancer cell line OVCAR-5, and multi-drug resistant ovarian cancer cell line OVCAR-3. […]

[7] = system: multi-drug resistant ovarian carcinoma cell line SK-OV3; assay: Cell growth assay on SK-OV3 cells; assay type: cell-based, human; details: SK-OV3, ovarian carcinoma
Procedure: as §1, §4

[8] = system: G3 CHOP-resistant NHL cells; details: fourth study
Procedure: In a first efficacy study, 6-8 week old female SCID mice (7 mice per treatment arm) were injected subcutaneously on both flanks with 1×10^7 G3 CHOP-resistant NHL cells. Once palpable tumors (about […] size) appeared, therapies (CHOP or CHOP+rifabutin) were started. CHOP was administered at the maximum tolerated dose (cyclophosphamide, 40 mg/kg i.v.; doxorubicin, 3.3 mg/kg i.v.; vincristine, 0.5 mg/kg i.v.; and prednisone, 0.2 mg/kg orally daily for 5 d) weekly for 3 weeks. Rifabutin in an amount of 100 mg/kg was administered on the day of each CHOP treatment and 24-hours later by gavage. Mouse body weight and tumor size were monitored every two days and tumor size measured by caliper. The tumor volume formula (L*W*W)/2 was used to calculate tumor mass.
A second efficacy study was conducted where mice were treated before the appearance of palpable tumors. In that experiment, one week after transplantation of CHOP-resistant G3 cells, one group (7 mice) was treated with CHOP-only and a second group (8 mice) was treated with CHOP+rifabutin.
A third study was conducted in which mice injected with CHOP-resistant G3 cells received reduced dosages of CHOP in combination with 33 mg/kg rifabutin. CHOP+rifabutin was administered weekly beginning one week post-inoculation. Control mice were given no CHOP or rifabutin.
SCID mice were injected with CHOP-resistant G3 cells in the same manner as the first efficacy study above. Treatments began 2 weeks post-inoculation and were administered twice weekly.

[9] = therapeutic drug alone, read-out: IC50
[10] = therapeutic drug with Rifabutin, read-out: IC50 (μM) with Rifabutin

## CC[C@@]1(O)C(=O)OCc2c1cc1n(c2=O)Cc2cc3ccccc3nc2-1 [Camptothecin, camptothecin]
[1]; [9]
  IC50: 1.13 µM
[1]; [10]
  IC50: 0.3 µM
[1]
  Fold increase in potency: 3.8 fold

## Cc1c2oc3c(C)ccc(C(=O)N[C@@H]4C(=O)N[C@H](C(C)C)C(=O)N5CCC[C@H]5C(=O)N(C)CC(=O)N(C)[C@@H](C(C)C)C(=O)O[C@@H]4C)c3nc-2c(C(=O)N[C@@H]2C(=O)N[C@H](C(C)C)C(=O)N3CCC[C@H]3C(=O)N(C)CC(=O)N(C)[C@@H](C(C)C)C(=O)O[C@@H]2C)c(N)c1=O [Actinomycin D, actinomycin D] (I: T[dV]P[Sar][NMeV] / II: T[dV]P[Sar][NMeV]; ester I:1-I:C, II:1-II:C; linker I:N-II:N via Actinocin(9to1))
[2]; [9]
  IC50: 0.04 µM
[2]; [10]
  IC50: < 0.008 µM
[2]; with vs without Rifabutin
  Fold increase in potency: >5 fold
[3]; therapeutic drug alone, MES-SA-Dx5, read-out: IC50
  IC50: 0.03 µM
[3]; therapeutic drug with Rifabutin, MES-SA-Dx5, read-out: IC50 (μM) with Rifabutin
  IC50: 0.01 µM
[3]; with vs without Rifabutin, MES-SA-Dx5
  Fold increase in potency: 3 fold

## CC(C)C[C@H](NC(=O)[C@H](Cc1ccccc1)NC(=O)c1cnccn1)B(O)O [Velcade, bortezomib]
[4]; therapeutic drug alone, OVCAR-5, read-out: IC50
  IC50: 0.17 µM
[4]; therapeutic drug with Rifabutin, OVCAR-5, read-out: IC50 (μM) with Rifabutin
  IC50: 0.08 µM
[4]; with vs without Rifabutin, OVCAR-5
  Fold increase in potency: 2.1 fold

## CO[C@H]1/C=C/O[C@@]2(C)Oc3c(C)c(O)c4c(c3C2O)C2=NC3(CCN(C(=O)OCC(C)C)CC3)NC2=C(NC(=O)/C(C)=C\C=C\[C@H](C)[C@H](O)[C@@H](C)[C@@H](O)[C@@H](C)[C@H](OC(C)=O)[C@@H]1C)C4=O (stereo partly shown) [RTI-175, 11-deoxy-11-hydroxy-4-deoxy-3,4[2-spiro-[1-(isobutyloxycarbonyl)-piperidin-4-yl]]-(1H)-imidazo-(2,5-dihydro)rifamycin S]
[5]
  Magnitude of potentiation in combination with doxorubicin: ++ (potentiation between 2.1 to 5 fold increase)
[4]; OVCAR-5, ovarian carcinoma
  Magnitude of potentiation in combination with doxorubicin: ++ (potentiation between 2.1 to 5 fold increase)
Lymphoma cell line G3
  Magnitude of potentiation in combination with doxorubicin: ++ (potentiation between 2.1 to 5 fold increase)
Lymphoma cell line G3; lymphoma cell line G3
  Fold increase in potency over DOX alone: 2.2 fold
[6]; OVCAR-3, ovarian carcinoma
  Magnitude of potentiation in combination with doxorubicin: + (potentiation between 1.2 to 2.0 fold increase)
[7]
  Magnitude of potentiation in combination with doxorubicin: +++ (potentiation greater than 5 fold increase)
[3]
  Magnitude of potentiation in combination with doxorubicin: + (potentiation between 1.2 to 2.0 fold increase)

## CC1=CC(=O)c2ccccc2C1=O [Menadione, menadione]
[6]; therapeutic drug alone, OVCAR-3, read-out: IC50
  IC50: > 32 µM
[6]; therapeutic drug with Rifabutin, OVCAR-3, read-out: IC50 (μM) with Rifabutin
  IC50: 10.9 µM
[6]; with vs without Rifabutin, OVCAR-3
  Fold increase in potency: >2.9 fold
[1]; [9]
  IC50: 4 µM
[1]; [10]
  IC50: 2 µM
[1]
  Fold increase in potency: 2 fold

## COC1C=COC2(C)Oc3c(C)c(O)c4c(c3C2=N)C2=NC3(CCN(C(=O)OCC(C)C)CC3)NC2=C(NC(=O)C(C)=CC=CC(C)C(O)C(C)C(O)C(C)C(OC(C)=O)C1C)C4=O (stereo not shown) [RTI-81, 11-deoxy-11-imino-4-deoxy-3,4[2-spiro-[1-(isobutyloxycarbonyl)-piperidin-4-yl]]-(1H)-imidazo-(2,5-dihydro)rifamycin S]
[5]
  Magnitude of potentiation in combination with doxorubicin: + (potentiation between 1.2 to 2.0 fold increase)
Lymphoma cell line G3
  Magnitude of potentiation in combination with doxorubicin: +++ (potentiation greater than 5 fold increase)
Lymphoma cell line G3; analog alone, lymphoma cell line G3, read-out: IC50
  IC50: > 64 µM
Lymphoma cell line G3; with 1 μM doxorubicin, lymphoma cell line G3, read-out: IC50 (μM) with doxorubicin (1 μM)
  IC50: 0.3 µM
[8]; DOX 3.3 mg/kg iv + RTI-81 10 mg/kg by gavage twice weekly
  longer life than doxorubicin only: 27%
[8]; doxorubicin+RTI-81 group
  mean lifespan: 42.6
  median lifespan: 42
[7]
  Magnitude of potentiation in combination with doxorubicin: +++ (potentiation greater than 5 fold increase)
[3]
  Magnitude of potentiation in combination with doxorubicin: ++ (potentiation between 2.1 to 5 fold increase)
